From patent US7329664B2, “Substituted (7-pyridyl-4-phenylamino-quinazolin-2-yl)-methanol analogues” (Neurogen Corporation, priority 2003, dated 2008)

Assays:
human capsaicin receptor [1] = target: T1, human capsaicin receptor (Homo sapiens, UniProt Q8NER1); assay: Calcium mobilization assay, capsaicin receptor antagonist activity (Example 6); assay type: cell-based; conditions: read-out: IC50 in standard assay of capsaicin receptor activity
T1 construct: transfected with the pBK-CMV expression construct encoding the full length human capsaicin receptor; expressed in transfected cells
Protocol: Human embryonic kidney (HEK293) cells were transfected with the pBK-CMV expression construct encoding the full length human capsaicin receptor using standard methods. The transfected cells were selected for two weeks in media containing G418 (400 μg/ml) to obtain a pool of stably transfected cells. Independent clones were isolated from this pool by limiting dilution to obtain clonal stable cell lines for use in subsequent experiments.
This Example illustrates representative calcium mobilization assays for use in evaluating test compounds for agonist and antagonist activity.
Cells transfected with expression plasmids (as described in Example 4) and thereby expressing human capsaicin receptor are seeded and grown to 70-90% confluency in FALCON black-walled, clear-bottomed 96-well plates (#3904, BECTON-DICKINSON, Franklin Lakes, N.J.). The culture medium is emptied from the 96 well plates and FLUO-3 AM calcium sensitive dye (Molecular Probes, Eugene, Oreg.) is added to each well (dye solution: 1 mg FLUO-3 AM, 440 μL DMSO and 440 μl 20% pluronic acid in DMSO, diluted 1:250 in Krebs-Ringer HEPES (KRH) buffer (25 mM HEPES, 5 mM KCl, 0.96 mM NaH2PO4, 1 mM MgSO4, 2 mM CaCl2, 5 mM glucose, 1 mM probenecid, pH 7.4), 50 μl diluted solution per well). […] After the incubation, the dye is emptied from the plates, and the cells are washed once with KRH buffer, and resuspended in KRH buffer.
(§1) To measure the ability of a test compound to agonize or antagonize a calcium mobilization response in cells expressing capsaicin receptors to capsaicin or other vanilloid agonist, the EC50 of the agonist capsaicin is first determined. An additional 20 μl of KRH buffer and 1 μl DMSO is added to each well of cells, prepared as described above. 100 μl capsaicin in KRH buffer is automatically transferred by the FLIPR instrument to each well. Capsaicin-induced calcium mobilization is monitored using either FLUOROSKAN ASCENT (Labsystems; Franklin, Mass.) or FLIPR (fluorometric imaging plate reader system; Molecular Devices, Sunnyvale, Calif.) instruments. […] In this equation, y is the maximum fluorescence signal, x is the concentration of the agonist or antagonist (in this case, capsaicin), a is the Emax, b corresponds to the EC50 value and c is the Hill coefficient. […]
Test compounds are dissolved in DMSO, diluted in 20 μl KRH buffer so that the final concentration of test compounds in the assay well is between 1 μM and 5 μM, and added to cells prepared as described above. […] Just prior to determining the fluorescence response, 100 μl capsaicin in KRH buffer at twice the EC50 concentration determined as described above is automatically added by the FLIPR instrument to each well of the 96 well plate for a final sample volume of 200 μl and a final capsaicin concentration equal to the EC50. […]

human capsaicin receptor [2] = target: T1, human capsaicin receptor; assay: Calcium mobilization assay, agonist response to capsaicin (Example 6); assay type: cell-based; conditions: cells expressing human capsaicin receptor, positive control; read-out: approximate EC90 concentration
Protocol: Cells transfected with expression plasmids (as described in Example 4) and thereby expressing human capsaicin receptor are seeded and grown to 70-90% confluency in FALCON black-walled, clear-bottomed 96-well plates (#3904, BECTON-DICKINSON, Franklin Lakes, N.J.). The culture medium is emptied from the 96 well plates and FLUO-3 AM calcium sensitive dye (Molecular Probes, Eugene, Oreg.) is added to each well (dye solution: 1 mg FLUO-3 AM, 440 μL DMSO and 440 μl 20% pluronic acid in DMSO, diluted 1:250 in Krebs-Ringer HEPES (KRH) buffer (25 mM HEPES, 5 mM KCl, 0.96 mM NaH2PO4, 1 mM MgSO4, 2 mM CaCl2, 5 mM glucose, 1 mM probenecid, pH 7.4), 50 μl diluted solution per well). […]
as §1, with “An additional 20 μl of KRH buffer and 1 μl DMSO is added to each well of cells, prepared as described above. 100 μl capsaicin in KRH buffer is automatically transferred by the FLIPR instrument to each well.” left out

T1 sequence (Q8NER1 whole entry): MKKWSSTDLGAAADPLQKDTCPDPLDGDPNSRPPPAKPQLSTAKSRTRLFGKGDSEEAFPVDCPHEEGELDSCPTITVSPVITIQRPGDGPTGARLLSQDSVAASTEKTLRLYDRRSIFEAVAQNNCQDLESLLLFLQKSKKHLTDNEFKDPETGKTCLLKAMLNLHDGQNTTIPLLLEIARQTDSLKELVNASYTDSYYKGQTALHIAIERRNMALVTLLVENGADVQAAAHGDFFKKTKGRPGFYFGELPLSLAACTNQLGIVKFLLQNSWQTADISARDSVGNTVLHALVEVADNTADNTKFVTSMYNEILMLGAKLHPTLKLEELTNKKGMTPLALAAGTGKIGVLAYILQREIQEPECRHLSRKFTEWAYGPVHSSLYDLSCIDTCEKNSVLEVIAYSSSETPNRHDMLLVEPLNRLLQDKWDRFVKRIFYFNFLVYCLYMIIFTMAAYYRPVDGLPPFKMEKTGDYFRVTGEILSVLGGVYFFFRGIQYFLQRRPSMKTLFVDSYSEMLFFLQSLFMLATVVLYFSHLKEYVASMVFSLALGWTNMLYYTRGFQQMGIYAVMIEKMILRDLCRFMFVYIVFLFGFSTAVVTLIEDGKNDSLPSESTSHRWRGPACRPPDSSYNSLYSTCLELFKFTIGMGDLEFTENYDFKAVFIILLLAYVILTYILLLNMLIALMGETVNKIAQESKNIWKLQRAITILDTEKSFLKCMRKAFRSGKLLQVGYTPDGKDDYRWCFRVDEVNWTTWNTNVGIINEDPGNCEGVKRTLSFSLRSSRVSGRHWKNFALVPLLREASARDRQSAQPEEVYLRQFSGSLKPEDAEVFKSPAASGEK

| IC50 (human capsaicin receptor [1]) [nM] | EC90 (human capsaicin receptor [2]) [nM] | SMILES |
| --- | --- | --- |
| – | ~100 | COc1cc(CNC(=O)CCCC/C=C/C(C)C)ccc1O [capsaicin] |
| < 10 | – | COCc1nc(Nc2ccc(C(F)(F)F)cc2)c2ccc(-c3ncccc3C)cc2n1 [Compound 3, [2-Methoxymethyl-7-(3-methylpyridin-2-yl)-quinazolin-4-yl)-(4-trifluoromethylphenyl)-amine] |

More lines, now with the values behind:

| SMILES | IC50 (human capsaicin receptor [1]) [nM] | EC90 (human capsaicin receptor [2]) [nM] |
| --- | --- | --- |
| COCc1nc(Nc2ccc(C(F)(F)F)cn2)c2ccc(-c3ncccc3C(F)(F)F)nc2n1 [Compound 133, [2-Methoxymethyl-7-(3-trifluoromethyl-pyridin-2-yl)-pyrido[2,3-d]pyrimidin-4-yl]-(5-trifluoromethy1-pyridin-2-yl)-amine] | < 10 | – |
| CC(C)COCc1nc(Nc2ccc(C(F)(F)F)cn2)c2ccc(-c3ncccc3C(F)(F)F)nc2n1 [Compound 132, [2-lsobutoxymethyl-7-(3-trifluoromethyl-pyridin-2-yl)-pyrido[2,3-d]pyrimidin-4-yl]-(5-trifluoromethyl-pyridin-2-yl)-amine] | < 10 | – |
| COCc1nc(Nc2ccc(C(F)(F)F)cc2)c2ccc(-c3ncccc3Cl)nc2n1 [Compound 2, [7-(3-Chloro-pyridin-2-yl)-2-methoxymethyl-pyrido[2,3-d]pyrimidin-4-yl]-(4-trifluoromethyl-phenyl)-amine] | < 10 | – |
